Results on four compounds are retold here after patent publication US6576662B2, “Compounds having anticancer activity : process for their preparation and pharmaceutical compositions containing them” (Dr. Reddy's Laboratories Limited, priority 2000, dated 2003).

The subject of one data set is HIV-1/MN. Kind of data set: Anti HIV activity, P24 antigen in infected PM-1 cells. It counts as cell-based. The note with it: Concentration 1 μM; PM-1 cells infected with HIV-1/MN, 96 h; P24 antigen corrected by MTT. The procedure: Human CD4+T cell line PM-1 used in the assay was cultured in RPMI-1640 medium containing 10% Fetal bovine serum, 2 g/L sodium bicarbonate, 100,000 units/L Penicillin-G and 100 mg/L streptomycin. Healthy PM-1 cells were plated on the first day in a 96 well plate at […]. After 24 h HIV-1/MN was added to the culture and incubated for 2 h for infection. Cells were washed twice with PBS to remove the virus in the culture. Different concentrations of DRF compounds ranging from 10^−4 to 10^−8M were added to the culture and incubated for 96 h. The viability of cells was then assessed by standard MTT assay and the viral antigen P24 levels were estimated by ELSA method. Based on the MTT assay values the P 24 antigen values were corrected. All the samples were tested in triplicates and the average was used for calculations. AZT was used as standard compound for comparision.

The next data set relates to KB. The note with it: KB cells; cited from earlier work.
Data set [1] concerns P388 lymphocytic leukemia. The note with it: P388 cells; cited from earlier work.
Another data set deals with Human lymphocytes. Kind of data set: Lymphocyte proliferation, tritiated thymidine incorporation. The format is cell-based. Conditions: Concentration 1 μM; human lymphocytes with Phytohemagglutitin A. The procedure: Human lymphocytes were isolated from whole blood by using Ficoll Hypaque Plus (Amersham). On day one, 1 million lymphocytes were seeded into each well of 96 well plate in 100 μL volume of RPMI 1640 medium containing 10% FCS and Phytohemagglutitin A at 1 μg/well concentration. Plates were incubated at 37° C. in CO2 incubator for 24 h. Test compounds at various concentrations were added to test wells and only medium with vehicle was added to control wells. After 48 h of incubation […] of tritiated thymidine was added to each well. After 24 h of thymidine addition the cells were harvested and the incorporated radioactivity was determined. Stimulation Index (SI) was calculated using the formula, [formula]
A^T=Average CPM of treated wells,
A^C=Average CPM of control wells.
(Dividing cells build labelled thymidine or BrdU into new DNA.)

Another data set deals with M14. In words: in vitro anti-cancer screen, Sulforhodamine B method. The format is cell-based, human. The note with it: MELANOMA: M14; 48 h incubation; read-out: GROWTH INHIBITION (GI 50). As to the method:
(§1) Each test compound was screened against a battery of cell lines representing eight different types of cancers. In a typical procedure, 1×10^4 cells were seeded into each well of 96 well plate in 100 μL volume of RPMI 1640 medium containing antibiotics and 10% FCS.
(§2) The plates were incubated at 37° C. in presence of CO2. After 24 h, test compounds were evaluated at five 10 fold dilutions ranging from 100 to 0.01 μM. To each test well 100 μL of test compound solution was added and medium with vehicle was added to control wells and the plates were further incubated. After 48 h of incubation, plates were terminated by Sulforhodamine B method.
(§3) The optical density which is proportional to protein mass, is then-read by automated spectrophotometric plate reader at a wavelength of 515 nm.

The subject of another data set is DU145. The data set is described as above. It counts as cell-based, human. Conditions: PROSTATE: DU145; 48 h incubation; read-out: GROWTH INHIBITION (GI 50). The procedure: as §1, §2, §3
The subject of the next data set is MCF-7/ADR. The data set is described as above. It counts as cell-based, human. Conditions: BREAST: MCF-7/ADR; 48 h incubation; read-out: GROWTH INHIBITION (GI 50). As to the method: as §1, §2, §3
For the next data set, the system named is SW-620. Described as above. It counts as cell-based, human. The note with it: COLON: SW-620; 48 h incubation; read-out: GROWTH INHIBITION (GI 50). The procedure:
as §1, §2, §3

A further data set deals with H522. Described as above. The format is cell-based, human. Conditions: LUNG: H522; 48 h incubation; read-out: GROWTH INHIBITION (GI 50). As to the method:
as §1, §2, §3

A further data set relates to U251. The description is as above. It counts as cell-based, human. The note with it: CNS: U251; 48 h incubation; read-out: GROWTH INHIBITION (GI 50). As to the method:
as §1, §2, §3

In another data set the test system is SKOV-3. The description is as above. It counts as cell-based, human. Conditions: OVARIAN: SKOV-3; 48 h incubation; read-out: GROWTH INHIBITION (GI 50). As to the method: as §1, §2, §3
A further data set relates to A498. The description is as above. The format is cell-based, human. The note with it: RENAL: A498; 48 h incubation; read-out: GROWTH INHIBITION (GI 50). The procedure: as §1, §2, §3
For a further data set, the system named is HIV-1(IIIB). Conditions: cited from earlier work.

Turning to `Cc1cn([C@H]2C[C@H](N=[N+]=[N-])[C@@H](CO)O2)c(=O)[nH]c1=O` [AZT, reference compound], in the data set with HIV-1/MN, the “Percentage Inhibition” value is 72.47.
With `C=C1CC[C@@H]2[C@](C)(CO)[C@H](O)CC[C@@]2(C)[C@@H]1C/C=C1/C(=O)OC[C@H]1O` [Andrographolide], the cytotoxic activity entry (in the data set with KB; in [1]) was “potent cytotoxic activity” in each case.
Take `C=C1CCC2C(C)(COC(C)=O)C(OC(C)=O)CCC2(C)C1CC(NCc1ccccc1)C1=CCOC1=O` (centres unmarked) [Example 1, 3,19-Diacetyl-12-(N-benzylamino)-14-deoxy andrographolide]: in the data set on Human lymphocytes, the “Stimulation Index (SI)” value was 123. Also, the GI50 stood at 5 µM in the data set on M14; 7 µM with DU145; 8 µM in the data set with MCF-7/ADR; 4 µM in the data set on SW-620; 9 µM with H522; 0.2 µM in the data set on U251. The GI50 turned out to be 0.3 µM with SKOV-3 and 5 µM in the data set on A498. For the same compound, in the data set with HIV-1/MN, the “Percentage Inhibition” value is on record as 73.94.
Take “dehydroandrographolide succinic acid monoester [DASM]”: the “minimal concentration inhibitory to HIV-1(IIIB)” value in the data set on HIV-1(IIIB) was 1.6 to 3.1 µg/mL.
